Test results from ChEMBL document CHEMBL5532661, “Discovery of a Novel Glucagon-like Peptide-1 (GLP-1) Analogue from Bullfrog and Investigation of Its Potential for Designing GLP-1-Based Multiagonists” (J Med Chem, 2024).
Activity calls are given as the source filed them. Numbered stars: 1 amine (or outer) side, 2 acyl side, 3 side chain; on linkers, the order of the positions; unused ones are H or OH. Side chains are listed from the residue outwards. Peptide text beside a SMILES is read from it. * marks the point of attachment. γGlu = O=C(O)[C@H](CCC(=O)[*:2])N[*:1]; Palmitoyl = CCCCCCCCCCCCCCCC(=O)*

Legend:
[1] = molecular target: T1, Glucagon-like peptide 1 receptor (Homo sapiens, UniProt P43220); assay: Agonist activity at human GLP-1 receptor expressed in HEK293 cells assessed as cAMP level measured after 60 mins by HTRF based assay; type: functional, cell-based
Mus musculus [2] = assay: Anorexigenic effect in ICR mouse assessed as decrease in food intake at 30 nmol/kg, sc measured at 48 hrs by acute food intake study; type: functional, organism-based
Mus musculus [3] = assay: Reduction in serum AST level in DIO mouse at 30 nmol/kg, sc treated twice a day measured after 21 days; type: functional, organism-based; details: time 21.0 day
Mus musculus [4] = assay: Reduction in hepatic lipid content in DIO mouse at 30 nmol/kg, sc treated twice a day measured after 21 days by H and E staining based assay; type: functional, organism-based; details: time 21.0 day
Mus musculus [5] = assay: Hypoglycemic effect in ICR mouse treated with 3 g/kg glucose assessed as reduction in blood glucose level at 10 nmol/kg, sc measured upto 120 mins by acute glucose lowering test; type: functional, organism-based
Mus musculus [6] = assay: Reduction in blood glucose level in non-fasting DIO mouse at 30 nmol/kg, sc treated twice a day measured after 21 days by glucose tolerance test; type: functional, organism-based; details: time 21.0 day
Mus musculus [7] = assay: Antihyperglycemic effect in DIO mouse assessed as antihyperglycemic duration by measuring blood glucose at 30 nmol/kg, sc measured after 12 to 24 hrs by hypoglycemic duration assay; type: functional, organism-based; details: time 12-24 hrs
[8] = molecular target: T1, Glucagon-like peptide 1 receptor; assay: Potency index, ratio of Semaglutide EC50 to test compound EC50 for agonist activity at human GLP-1 receptor expressed in HEK293 cells assessed as cAMP level measured after 60 mins by HTRF based assay; type: functional, cell-based; details: filed as agonist
[9] = molecular target: Glucagon receptor (Mus musculus) (UniProt Q61606); assay: Agonist activity at mouse GCGR receptor expressed in HEK293 cells assessed as cAMP level measured after 60 mins by HTRF based assay; type: functional, cell-based; details: filed as agonist
Mus musculus [10] = assay: Anorexigenic effect in ICR mouse assessed as decrease in food intake at 10 nmol/kg, sc measured upto 72 hrs by acute food intake study; type: functional, organism-based
Mus musculus [11] = assay: Reduction in feed intake in DIO mouse at 30 nmol/kg, sc treated twice a day measured after 21 days; type: functional, organism-based; details: time 21.0 day
Mus musculus [12] = assay: Reduction in total fat mass in DIO mouse at 30 nmol/kg, sc treated twice a day measured after 21 days; type: functional, organism-based; details: time 21.0 day
Mus musculus [13] = assay: Antihyperglycemic effect in DIO mouse assessed as prolonged antihyperglycemic duration by measuring blood glucose at 100 nmol/kg, sc; type: functional, organism-based
Mus musculus [14] = assay: Reduction in body weight in DIO mouse at 30 nmol/kg, sc treated twice a day measured after 21 days; type: functional; parameters: scale not given: the % may be the effect or the level left; details: time 21 day
[15] = molecular target: T2, Glucagon-like peptide 1 receptor (Mus musculus) (UniProt O35659); assay: Potency index, ratio of GLP-1 EC50 to test compound EC50 for agonist activity at mouse GLP-1 receptor expressed in HEK293 cells assessed as cAMP level measured after 60 mins by HTRF based assay; type: functional, cell-based; details: filed as agonist
T2 sequence (whole entry): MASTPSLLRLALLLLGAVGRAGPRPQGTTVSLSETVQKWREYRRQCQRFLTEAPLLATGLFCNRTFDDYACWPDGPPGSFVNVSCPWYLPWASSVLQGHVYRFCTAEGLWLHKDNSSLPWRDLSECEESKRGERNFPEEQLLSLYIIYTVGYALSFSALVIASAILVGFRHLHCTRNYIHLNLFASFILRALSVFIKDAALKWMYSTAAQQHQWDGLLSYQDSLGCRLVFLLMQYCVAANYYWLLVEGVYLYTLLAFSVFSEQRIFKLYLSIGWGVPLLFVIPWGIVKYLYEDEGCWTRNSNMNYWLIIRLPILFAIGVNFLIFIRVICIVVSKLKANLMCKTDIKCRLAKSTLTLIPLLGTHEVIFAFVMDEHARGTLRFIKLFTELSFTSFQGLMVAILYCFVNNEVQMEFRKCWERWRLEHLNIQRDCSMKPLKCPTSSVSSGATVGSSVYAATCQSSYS

Glucagon receptor [16] = molecular target: T3, Glucagon receptor (Homo sapiens, UniProt P47871); assay: Agonist activity at human GCGR expressed in HEK293 cells assessed as cAMP level measured after 60 mins by HTRF based assay; type: functional, cell-based
Mus musculus [17] = assay: Anorexigenic effect in ICR mouse assessed as decrease in food intake at 30 nmol/kg, sc measured upto 72 hrs by acute food intake study; type: functional, organism-based
Glucagon receptor [18] = molecular target: T3, Glucagon receptor; assay: Potency index, ratio of glucagon EC50 to test compound EC50 for agonist activity at human GCGR expressed in HEK293 cells assessed as cAMP level measured after 60 mins by HTRF based assay; type: functional, cell-based; details: filed as agonist
Mus musculus [19] = assay: Antihyperglycemic effect in DIO mouse assessed as antihyperglycemic duration by measuring blood glucose at 30 nmol/kg, sc administered twice daily measured after 72 hrs by hypoglycemic duration assay; type: functional, organism-based
Glucagon receptor [20] = molecular target: T3, Glucagon receptor; assay: Agonist activity at human GCGR expressed in HEK293 cells assessed as cAMP level by measuring relative percent (glucagon EC50/compound EC50) measured after 60 mins by HTRF based assay relative to glucagon; type: functional, cell-based; details: filed as agonist
[21] = molecular target: T1, Glucagon-like peptide 1 receptor; assay: Agonist activity at human GLP-1 receptor expressed in HEK293 cells assessed as cAMP level by measuring relative percent (GLP-1 EC50/compound EC50) measured after 60 mins by HTRF based assay relative to GLP-1; type: functional, cell-based; details: filed as agonist
[22] = molecular target: T2, Glucagon-like peptide 1 receptor (Mus musculus); assay: Agonist activity at mouse GLP-1 receptor expressed in HEK293 cells assessed as cAMP level measured after 60 mins by HTRF based assay; type: functional, cell-based; details: filed as agonist
Mus musculus [23] = assay: Hypoglycemic effect in ICR mouse treated with 3 g/kg glucose assessed as reduction in blood glucose level at 100 nmol/kg, sc measured upto 120 mins by acute glucose lowering test; type: functional, organism-based
Mus musculus [24] = assay: Reduction in serum triglyceride in DIO mouse at 30 nmol/kg, sc treated twice a day measured after 21 days; type: functional, organism-based; details: time 21.0 day
Mus musculus [25] = assay: Hypoglycemic effect in ICR mouse treated with 3 g/kg glucose assessed as reduction in blood glucose level at 30 nmol/kg, sc measured upto 120 mins pretreated with GLP-1R antagonist by OGTT; type: functional, organism-based
Mus musculus [26] = assay: Reduction in serum ALT level in DIO mouse at 30 nmol/kg, sc treated twice a day measured after 21 days; type: functional, organism-based; details: time 21.0 day
Mus musculus [27] = assay: Anorexigenic effect in sc dosed ICR mouse assessed as decrease in food intake measured upto 72 hrs by acute food intake study; type: functional, organism-based; details: dose 10-100 nmol/kg
Mus musculus [28] = assay: Reduction in total cholesterol in DIO mouse at 30 nmol/kg, sc treated twice a day measured after 21 days; type: functional, organism-based; details: time 21.0 day

T1 sequence (P43220 whole entry): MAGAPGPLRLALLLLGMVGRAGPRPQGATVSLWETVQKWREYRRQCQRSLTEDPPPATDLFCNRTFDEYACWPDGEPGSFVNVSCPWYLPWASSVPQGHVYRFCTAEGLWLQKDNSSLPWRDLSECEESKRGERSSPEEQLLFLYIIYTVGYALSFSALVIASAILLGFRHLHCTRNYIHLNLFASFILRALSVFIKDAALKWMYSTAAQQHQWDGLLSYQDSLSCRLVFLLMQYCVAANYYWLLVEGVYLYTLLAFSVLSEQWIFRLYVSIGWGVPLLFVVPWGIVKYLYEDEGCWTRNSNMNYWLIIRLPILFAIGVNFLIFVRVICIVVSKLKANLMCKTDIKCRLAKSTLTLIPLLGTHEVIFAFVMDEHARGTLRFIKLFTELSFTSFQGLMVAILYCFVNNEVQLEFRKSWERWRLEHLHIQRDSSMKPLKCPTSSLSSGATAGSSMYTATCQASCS
T3 sequence (P47871 whole entry): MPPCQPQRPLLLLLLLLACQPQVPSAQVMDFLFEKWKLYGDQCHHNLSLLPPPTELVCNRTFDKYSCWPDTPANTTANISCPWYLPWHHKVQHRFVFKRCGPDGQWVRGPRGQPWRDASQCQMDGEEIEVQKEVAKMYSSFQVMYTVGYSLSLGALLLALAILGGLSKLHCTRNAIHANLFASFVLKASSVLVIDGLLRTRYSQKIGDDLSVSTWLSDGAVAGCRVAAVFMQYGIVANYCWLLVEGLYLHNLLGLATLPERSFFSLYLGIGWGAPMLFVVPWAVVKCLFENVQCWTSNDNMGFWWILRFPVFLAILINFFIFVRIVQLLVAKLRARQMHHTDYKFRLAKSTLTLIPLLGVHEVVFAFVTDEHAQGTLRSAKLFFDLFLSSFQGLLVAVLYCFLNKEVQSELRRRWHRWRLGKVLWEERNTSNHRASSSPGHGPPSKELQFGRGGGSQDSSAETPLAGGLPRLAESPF
Glucagon receptor (Mus musculus), sequence (Q61606 whole entry): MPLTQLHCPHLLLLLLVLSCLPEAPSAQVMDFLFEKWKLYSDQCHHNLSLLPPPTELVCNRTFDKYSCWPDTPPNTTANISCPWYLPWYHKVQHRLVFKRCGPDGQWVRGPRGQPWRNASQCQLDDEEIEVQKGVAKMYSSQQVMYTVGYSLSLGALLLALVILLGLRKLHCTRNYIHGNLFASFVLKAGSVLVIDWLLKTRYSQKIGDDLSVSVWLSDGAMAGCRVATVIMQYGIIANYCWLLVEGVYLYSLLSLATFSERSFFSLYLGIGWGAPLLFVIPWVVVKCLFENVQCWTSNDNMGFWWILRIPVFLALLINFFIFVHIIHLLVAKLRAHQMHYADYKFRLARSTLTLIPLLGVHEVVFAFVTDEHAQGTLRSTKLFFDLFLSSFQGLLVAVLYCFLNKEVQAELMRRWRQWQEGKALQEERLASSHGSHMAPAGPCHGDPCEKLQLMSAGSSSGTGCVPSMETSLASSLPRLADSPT

CCCCCCCCCCCCCCCC(=O)N[C@@H](CCC(=O)NCCCC[C@H](NC(=O)[C@H](Cc1ccc(O)cc1)NC(=O)[C@H](CCCCN)NC(=O)[C@H](CO)NC(=O)[C@H](CCSC)NC(=O)[C@H](CC(=O)O)NC(=O)[C@H](CO)NC(=O)[C@@H](NC(=O)[C@H](Cc1ccccc1)NC(=O)[C@@H](NC(=O)CNC(=O)[C@H](CCC(N)=O)NC(=O)[C@H](CO)NC(=O)[C@@H](N)Cc1c[nH]cn1)[C@@H](C)O)[C@@H](C)O)C(=O)N[C@@H](CC(=O)O)C(=O)N[C@@H](CO)C(=O)N[C@@H](CCCNC(=N)N)C(=O)N[C@@H](CCCNC(=N)N)C(=O)N[C@@H](C)C(=O)N[C@@H](CCC(N)=O)C(=O)N[C@@H](CC(=O)O)C(=O)N[C@@H](Cc1ccccc1)C(=O)N[C@H](C(=O)N[C@@H](CC(=O)O)C(=O)N[C@@H](Cc1c[nH]c2ccccc12)C(=O)N[C@@H](CC(C)C)C(=O)N[C@@H](CCCCN)C(=O)N[C@@H](CC(N)=O)C(=O)NCC(=O)NCC(=O)N1CCC[C@H]1C(=O)N[C@@H](CO)C(=O)N[C@@H](CO)C(=O)NCC(=O)N[C@@H](C)C(=O)N1CCC[C@H]1C(=O)N1CCC[C@H]1C(=O)N1CCC[C@H]1C(=O)N[C@@H](CO)C(N)=O)C(C)C)C(=O)O (H-HSQGTFTSDMSKYK([γGlu-Palmitoyl])DSRRAQDFVDWLKNGGPSSGAPPPS-NH2)
3: Ratio EC50 [8] | Ratio EC50 [15] | Ratio EC50 (Glucagon receptor [18])
active: Activity (Mus musculus [2]) | Activity (Mus musculus [3]) | Activity (Mus musculus [4]) | Activity (Mus musculus [5]) | Activity (Mus musculus [6]) | Activity (Mus musculus [7]) | Activity [9] | Activity (Mus musculus [10]) | Activity (Mus musculus [11]) | Activity (Mus musculus [12]) | Activity (Mus musculus [13]) | Activity (Mus musculus [17]) | Activity (Mus musculus [19]) | Activity [22] | Activity (Mus musculus [23]) | Activity (Mus musculus [24]) | Activity (Mus musculus [26]) | Activity (Mus musculus [27]) Dose-Dependent Effect | Activity (Mus musculus [28])
inactive: Activity (Mus musculus [25])
0.011 nM: EC50 [1]
30.6%: Activity (Mus musculus [14])
0.027 nM: EC50 (Glucagon receptor [16])
341%: Activity (Glucagon receptor [20])
482%: Activity [21]
